The inhibition is the relative decrease from the control value, in per cent.

The experiment concerns RSV strain A2. The experiment can be described thus: RSV antiviral cytoprotection assay in Hep2 cells (RSV-induced cytopathic effect, Cell TiterGlo). Format: cell-based, Respiratory Syncytial Virus (RSV). The note with it: human respiratory syncytial virus, HEp-2, 0.5 μM compound; RSV A2-infected Hep2 cells; % inhibition calculated from 4-parameter dose response curve, normalized to 0% and 100%; read-out: Percent inhibition at 0.5 μM. As for the experimental part:
Antiviral activity against RSV was determined using an in vitro cytoprotection assay in Hep2 cells. […] The method used was similar to methods previously described in published literature (Chapman et al., Antimicrob Agents Chemother. 2007, 51(9):3346-53.)
Hep2 cells were obtained from ATCC (Manassas, VI) and maintained in MEM media supplemented with 10% fetal bovine serum and penicillin/streptomycin. Cells were passaged twice a week and kept at subconfluent stage. Commercial stock of RSV strain A2 (Advanced Biotechnologies, Columbia, Md.) was titered before compound testing to determine the appropriate dilution of the virus stock that generated desirable cytopathic effect in Hep2 cells.
For antiviral tests, Hep2 cells were seeded into 96-well plates 24 hours before the assay at a density of 3,000 cells/well. On a separate 96 well plate, compounds to be tested were serially diluted in cell culture media. Eight concentrations in 3-fold serial dilution increments were prepared for each tested compound and 100 uL/well of each dilution was transferred in duplicate onto plates with seeded Hep2 cells. Subsequently, appropriate dilution of virus stock previously determined by titration was prepared in cell culture media and 100 uL/well was added to test plates containing cells and serially diluted compounds. Each plate included three wells of infected untreated cells and three wells of uninfected cells that served as 0% and 100% virus inhibition control, respectively. Following the infection with RSV, testing plates were incubated for 4 days in a tissue culture incubator. After the incubation, RSV-induced cytopathic effect was determined using a Cell TiterGlo reagent (Promega, Madison, Wis.) followed by a luminescence read-out. The percentage inhibition was calculated for each tested concentration relative to the 0% and 100% inhibition controls and the EC50 value for each compound was determined by non-linear regression as a concentration inhibiting the RSV-induced cytopathic effect by 50%. Ribavirin (purchased from Sigma, St. Louis, Mo.) was used as a positive control for antiviral activity.
Compounds were also tested for antiviral activity against RSV in Hep2 cells using a 384 well format. Compounds were diluted in DMSO using a 10-step serial dilution in 3-fold increments via automation in 4 adjacent replicates each. Eight compounds were tested per dilution plate. 0.4 uL of diluted compounds were then stamped via Biomek into 384-well plates (Nunc 142761 or 164730 w/lid 264616) containing 20 μL of media (Mediatech Inc. MEM supplemented with Glutamine, 10% FBS and Pen/Strep). DMSO and a suitable positive control compound, such as 80 μM GS-329467 or 10 μM 427346 was used for the 100% and 0% cell killing controls, respectively.
Hep2 cells (1.0×10^5 cells/ml) were prepared as above in batch to at least 40 mls excess of the number of sample plates (8 mls cell mix per plate) and infected with vendor supplied (ABI) RSV strain A2 to arrive at an MOI of 1:1000 (virus:cell #) or 1:3000 (vol virus: cell vol). Immediately after addition of virus, the RSV infected Hep2 cell suspension was added to each stamped 384-well plate at 20 μl per well using a uFlow dispenser, giving a final volume of 40 μL/well, each with 2000 infected cells. The plates were then incubated for 5 days at 37° C. and 5% CO2. Following incubation, the plates were equilibrated to room temperature in a biosafety cabinet hood for 1.5 hrs and 40 μL of Cell-Titer Glo viability reagent (Promega) was added to each well via uFlow. Following a10-20 minute incubation, the plates were read using an EnVision or Victor Luminescence plate reader (Perkin-Elmer). The data was then uploaded and analyzed on the Bioinformatics portal under the RSV Cell Infectivity and 8-plate EC50-Hep2-384 or 8-plate EC50-Hep2-Envision protocols. […]
As to `Cc1cn2nc([C@@H]3CCCCN3C(=O)c3ccc4ccccc4n3)cc2nc1N1CC[C@H](N)C1` [Compound 96], the inhibition at 0.5 µM was 65%.

With `COc1ccc2ccccc2c1C(=O)N1CCCC[C@H]1c1cc2nc(N3CC[C@H](N)C3)c(C)cn2n1` [Compound 97], the inhibition at 0.5 µM is 100%.

On to `Cc1cn2nc([C@@H]3CCCCN3C(=O)c3cccc4c3cnn4C)cc2nc1N1CC[C@H](N)C1` [Compound 98], for which the inhibition at 0.5 µM was 97%.

Take `Cc1cn2nc([C@@H]3CCCCN3C(=O)c3csc4ccc(Br)cc34)cc2nc1N1CC[C@H](N)C1` [Compound 99]: the inhibition at 0.5 µM is 100%.

Take `Cc1cn2nc([C@@H]3CCCCN3C(=O)c3cc(Cl)cc(Cl)n3)cc2nc1N1CC[C@H](N)C1` [Compound 100]: the inhibition at 0.5 µM was 100%.

For the molecule `Cc1cn2nc([C@@H]3CCCCN3C(=O)c3cn4ncccc4n3)cc2nc1N1CC[C@H](N)C1` [Compound 101], the inhibition at 0.5 µM is 16%.

Take `Cc1cn2nc([C@@H]3CCCCN3C(=O)c3ccc(-n4cncn4)cc3Cl)cc2nc1N1CC[C@H](N)C1` [Compound 102]: the inhibition at 0.5 µM was 16%.

Take `Cc1cn2nc([C@@H]3CCCCN3C(=O)c3ccccc3[S+](C)[O-])cc2nc1N1CC[C@H](N)C1` (some centres unmarked) [Compound 103]: the inhibition at 0.5 µM is 100%.

Turning to `Cc1cn2nc([C@@H]3CCCCN3C(=O)c3ncc(Cl)cc3C(F)(F)F)cc2nc1N1CC[C@H](N)C1` [Compound 104], the inhibition at 0.5 µM was 56%.

As to `Cc1cn2nc([C@@H]3CCCCN3C(=O)c3ncc(C(F)(F)F)cc3Cl)cc2nc1N1CC[C@H](N)C1` [Compound 105], the inhibition at 0.5 µM was 31%.

As for `Cc1cn2nc([C@@H]3CCCCN3C(=O)c3cc(Cl)ccc3C(F)(F)F)cc2nc1N1CC[C@H](N)C1` [Compound 106], the inhibition at 0.5 µM was 100%.

`COc1ccc(F)c(C(=O)N2CCCC[C@H]2c2cc3nc(N4CC[C@H](N)C4)c(C)cn3n2)n1` [Compound 107]: the inhibition at 0.5 µM was 100%.

Regarding `Cc1cn2nc([C@@H]3CCCCN3C(=O)c3cccc4n[nH]cc34)cc2nc1N1CC[C@H](N)C1` [Compound 108], the inhibition at 0.5 µM was 99%.

Turning to `Cc1cn2nc([C@@H]3CCCCN3C(=O)c3cc(F)ccc3C(F)(F)F)cc2nc1N1CC[C@H](N)C1` [Compound 109], the inhibition at 0.5 µM is 100%.

In the case of `CCc1ccc(C(=O)N2CCCC[C@H]2c2cc3nc(N4CC[C@H](N)C4)c(C)cn3n2)nc1` [Compound 110], the inhibition at 0.5 µM is 36%.

For the molecule `Cc1ccc(Br)cc1C(=O)N1CCCC[C@H]1c1cc2nc(N3C[C@@H](C#N)[C@@H](O)C3)c(C)cn2n1` [Compound 112], the inhibition at 0.5 µM was 100%.

Regarding `COc1ccccc1C(=O)N1CCCC[C@H]1c1cc2nc(N3C[C@@H](C#N)[C@@H](O)C3)c(C)cn2n1` [Compound 113], the inhibition at 0.5 µM is 100%.

As to `Cc1cn2nc([C@@H]3CCCCN3C(=O)c3cc(F)c(F)c(Cl)c3F)cc2nc1N1C[C@@H](C#N)[C@@H](O)C1` [Compound 114], the inhibition at 0.5 µM is 100%.

Take `Cc1cn2nc([C@@H]3CCCCN3C(=O)c3ncccc3Cl)cc2nc1N1C[C@@H](C#N)[C@@H](O)C1` [Compound 115]: the inhibition at 0.5 µM is 98%.

Take `Cc1cn2nc([C@@H]3CCCCN3C(=O)c3cccc(F)c3Cl)cc2nc1N1C[C@@H](C#N)[C@@H](O)C1` [Compound 116]: the inhibition at 0.5 µM was 100%.

As to `Cc1cn2nc([C@@H]3CCCCN3C(=O)c3ccc(C#N)cc3F)cc2nc1N1C[C@@H](C#N)[C@@H](O)C1` [Compound 117], the inhibition at 0.5 µM is 46%.

Regarding `Cc1cn2nc([C@@H]3CCCCN3C(=O)c3ccc(C)c(F)c3F)cc2nc1N1C[C@@H](C#N)[C@@H](O)C1` [Compound 118], the inhibition at 0.5 µM was 99%.

Turning to `Cc1ccc(C(F)(F)F)c(C(=O)N2CCCC[C@H]2c2cc3nc(N4C[C@@H](C#N)[C@@H](O)C4)c(C)cn3n2)c1` [Compound 120], the inhibition at 0.5 µM is 100%.

For `Cc1ccc(C(=O)N2CCCC[C@H]2c2cc3nc(N4C[C@@H](C#N)[C@@H](O)C4)c(C)cn3n2)c(C(F)(F)F)c1` [Compound 121], the inhibition at 0.5 µM was 92%.

`Cc1cn2nc([C@@H]3CCCCN3C(=O)c3cc(F)ccc3OC(F)(F)F)cc2nc1N1C[C@@H](C#N)[C@@H](O)C1` [Compound 122]: the inhibition at 0.5 µM is 100%.

Turning to `Cc1cn2nc([C@@H]3CCCCN3C(=O)c3cccc4cn[nH]c34)cc2nc1N1C[C@@H](C#N)[C@@H](O)C1` [Compound 123], the inhibition at 0.5 µM is 98%.

As for `Cc1cn2nc([C@@H]3CCCCN3C(=O)c3c(F)ccc(C)c3F)cc2nc1N1C[C@@H](C#N)[C@@H](O)C1` [Compound 124], the inhibition at 0.5 µM was 100%.

For `COc1ccc(C(=O)N2CCCC[C@H]2c2cc3nc(N4C[C@@H](C#N)[C@@H](O)C4)c(C)cn3n2)c(F)c1` [Compound 126], the inhibition at 0.5 µM is 82%.

For the molecule `Cc1noc(-c2ccccc2C(=O)N2CCCC[C@H]2c2cc3nc(N4C[C@@H](C#N)[C@@H](O)C4)c(C)cn3n2)n1` [Compound 129], the inhibition at 0.5 µM is 87%.

`Cc1cn2nc([C@@H]3CCCCN3C(=O)c3cc(F)cc4c3OCOC4)cc2nc1N1C[C@@H](C#N)[C@@H](O)C1` [Compound 130]: the inhibition at 0.5 µM is 100%.

For the molecule `Cc1ccc(C(=O)N2CCCC[C@H]2c2cc3nc(N4C[C@@H](C#N)[C@@H](O)C4)c(C)cn3n2)c(Cl)c1` [Compound 131], the inhibition at 0.5 µM is 96%.

For the molecule `COc1cc2c(cc1C(=O)N1CCCC[C@H]1c1cc3nc(N4C[C@@H](C#N)[C@@H](O)C4)c(C)cn3n1)CCC2` [Compound 132], the inhibition at 0.5 µM is 97%.

As to `Cc1cn2nc([C@@H]3CCCCN3C(=O)c3ccc4cccc(F)c4n3)cc2nc1N1C[C@@H](C#N)[C@@H](O)C1` [Compound 133], the inhibition at 0.5 µM was 56%.

Regarding `Cc1cn2nc([C@@H]3CCCCN3C(=O)c3[nH]c4c(C)ccc(C)c4c3C)cc2nc1N1C[C@@H](C#N)[C@@H](O)C1` [Compound 134], the inhibition at 0.5 µM was 35%.

For the molecule `Cc1cn2nc([C@@H]3CCCCN3C(=O)c3cccc4ccnn34)cc2nc1N1C[C@@H](C#N)[C@@H](O)C1` [Compound 135], the inhibition at 0.5 µM is 100%.

Consider `Cc1cn2nc([C@@H]3CCCCN3C(=O)c3c(Cl)nc4ccccn34)cc2nc1N1C[C@@H](C#N)[C@@H](O)C1` [Compound 136], for which the inhibition at 0.5 µM was 83%.

As for `Cc1ccc(S(C)(=O)=O)cc1C(=O)N1CCCC[C@H]1c1cc2nc(N3C[C@@H](C#N)[C@@H](O)C3)c(C)cn2n1` [Compound 138], the inhibition at 0.5 µM was 65%.

In the case of `Cc1cn2nc([C@@H]3CCCCN3C(=O)c3cccc4c3CCCN4)cc2nc1N1C[C@@H](C#N)[C@@H](O)C1` [Compound 139], the inhibition at 0.5 µM was 100%.

On to `Cc1cn2nc([C@@H]3CCCCN3C(=O)c3cccc4c3OCO4)cc2nc1N1C[C@@H](C#N)[C@@H](O)C1` [Compound 140], for which the inhibition at 0.5 µM is 100%.

On to `Cc1cc(C(=O)N2CCCC[C@H]2c2cc3nc(N4C[C@@H](C#N)[C@@H](O)C4)c(C)cn3n2)c2[nH]ncc2c1` [Compound 143], for which the inhibition at 0.5 µM is 100%.

Take `Cc1cn2nc([C@@H]3CCCCN3C(=O)c3ccccc3OC3CCCC3)cc2nc1N1C[C@@H](C#N)[C@@H](O)C1` [Compound 144]: the inhibition at 0.5 µM was 80%.

Regarding `CCS(=O)(=O)c1ccc(F)c(C(=O)N2CCCC[C@H]2c2cc3nc(N4C[C@@H](C#N)[C@@H](O)C4)c(C)cn3n2)c1` [Compound 145], the inhibition at 0.5 µM was 60%.

Turning to `Cc1cn2nc([C@@H]3CCCCN3C(=O)c3ccccc3Cl)cc2nc1N1C[C@@H](C#N)[C@@H](O)C1` [Compound 146], the inhibition at 0.5 µM is 100%.

`Cc1cn2nc([C@@H]3CCCCN3C(=O)c3cccc(C(F)(F)F)n3)cc2nc1N1C[C@@H](C#N)[C@@H](O)C1` [Compound 148]: the inhibition at 0.5 µM is 77%.

The values above are taken from US8946238B2, “Pyrazolo[1,5-A]pyrimidines as antiviral agents” (Gilead Sciences, Inc., priority 2011, dated 2015).
